Earlier results on 1 compound are cited in patent publication US20130178603A1, “MULTI-MODE CANCER TARGETED NANOPARTICULATE SYSTEM AND A METHOD OF SYNTHESIZING THE SAME” (priority 2012, published 2013).

Structures are written as SMILES.

The conditions of this series: after I.V administration.

Consider `CN(Cc1cnc2nc(N)nc(N)c2n1)c1ccc(C(=O)N[C@@H](CCC(=O)O)C(=O)O)cc1` [MTX, methotrexate], for which the mean distribution half-life was 1.5 to 3.5 h.
